Test results as given in patent publication US20250186420A1, “POLYMETHINIUM SALTS AS INHIBITORS OF DIHYDROOROTATE DEHYDROGENASE” (UNIVERZITA KARLOVA, priority 2022, published 2025).

Columns and labels:
Assay type in all cases: cell-based
[1] = system: PC-3; test: xCELLigence real-time impedance cell migration; conditions: for Normalized cell index (cell migration): cell index normalized to 1.0 at addition of test agent, concentration based on IC50 for the cell line
Method: (§1) The xCELLigence system based on real-time cell impedance analysis (RTCA) was used to determine invasiveness and migration rates. The xCELLigence system consists of four main components: an RTCA DP station, an RTCA computer with integrated software, and CIM 16 disposable plates. First, the optimal cell seeding concentration for the proliferation and invasiveness assay was determined. After seeding the total number of cells in 200 μl medium into each well in E-plate 16, cell adherence and proliferation were monitored every 15 minutes. For the invasiveness assay, the optimal response was found in a well containing 20,000 cells. After coating the upper wells with matrigel and adding FBS as a chemoattractant, cells were seeded in 100 μl medium in each well of a CIM-plate 16. Adherence and growth of cells through the matrigel was monitored every 15 minutes. The duration of all experiments was 150 hours. The relative invasiveness rate was defined as the cellular index for matrigel-coated wells (cells must spread/pass through the matrigel to generate a signal) at a given time point. The impedance of electron flow due to adherent cells is given by a unitless parameter called the cell index (CI), where CI=(impedance at time point n-impedance in the absence of cells)/nominal impedance value). In order to compare individual cell lines/treatment, these cell indices were normalized to 1.0 at the time the test agents were added. Concentrations of compounds were chosen based on the IC50 inhibitory concentration for each cell line.

[2] = system: PNTA; test: xCELLigence real-time impedance cell migration; conditions: for Normalized cell index (cell migration): cell index normalized to 1.0 at addition of test agent, concentration based on IC50 for the cell line
Method: as §1

[3] = system: U-2 OS; test: xCELLigence real-time impedance cell migration; conditions: for Normalized cell index (cell migration): cell index normalized to 1.0 at addition of test agent, concentration based on IC50 for the cell line
Method: as §1

[4] = system: PC-3; test: xCELLigence real-time impedance cell invasiveness (matrigel); conditions: for Normalized cell index (cell invasiveness): matrigel-coated wells, normalized to 1.0 at addition of test agent, concentration based on IC50 for the cell line
Method: as §1

[5] = system: PNTA; test: as above; conditions: for Normalized cell index (cell invasiveness): matrigel-coated wells, normalized to 1.0 at addition of test agent, concentration based on IC50 for the cell line
Method: as §1

[6] = system: U-2 OS; test: as above; conditions: for Normalized cell index (cell invasiveness): matrigel-coated wells, normalized to 1.0 at addition of test agent, concentration based on IC50 for the cell line
Method: as §1

[7] = system: DHODH-dependent respiration in PC-3; test: Inhibition of DHODH-dependent respiration (Oxygraph-2k); conditions: PC-3 tumor line; test substance 1 to 4 nM; permeabilized cells
Method: (§2) DHODH-dependent respiration was performed as follows. Cells were trypsinized, washed with PBS, resuspended in an amount of 2×10^6 cells per ml Mir05 medium (0.5 mM EGTA, 3 mM MgCl2, 60 mM K-lactobionate, 20 mM taurine, 10 mM KH2PO4, 110 mM sucrose, 1 g/L bovine serum albumin, 20 mM Hepes, pH 7.1 at 30° C.) and transferred to the chamber of the Oxygraph-2k instrument (Oroboros). Respiration was measured at 37° C. Cells were permeabilized with 5 μg of digitonin per 10^6 cells, and complex I inhibitor (0.3 μM rotenone) and test substance were added at concentrations from 1 to 4 nM before adding the substrate. DHODH-mediated respiration was assessed by subtracting the residual rate of respiration remaining after the addition of 30 μM leflunomide from the rate of respiration in the presence of 1 mM dihydroorotate (DHO), 3 mM ADP, and 10 μM cytochrome c.

[8] = system: DHODH-dependent respiration in PNT1A cell line; test: as above; conditions: model of normal prostate tissue, test substance 1 to 4 nM, permeabilized cells
Method: as §2

[9] = system: DHODH-dependent respiration in U-2 OS; test: as above; conditions: U-2 OS tumor line; test substance 1 to 4 nM; permeabilized cells
Method: as §2

| Compound | Control-substance (difference of normalized cell index, cell migration) [1] | Normalized cell index (cell migration) [1] | Control-substance (difference of normalized cell index, cell migration) [2] | Normalized cell index (cell migration) [2] | Control-substance (difference of normalized cell index, cell migration) [3] | Normalized cell index (cell migration) [3] | Control-substance (difference of normalized cell index, cell invasiveness) [4] | Normalized cell index (cell invasiveness) [4] | Control-substance (difference of normalized cell index, cell invasiveness) [5] | Normalized cell index (cell invasiveness) [5] | Control-substance (difference of normalized cell index, cell invasiveness) [6] | Normalized cell index (cell invasiveness) [6] | DHODH-dependent respiration [7] | DHODH-dependent respiration [8] | DHODH-dependent respiration [9] |
| --- | --- | --- | --- | --- | --- | --- | --- | --- | --- | --- | --- | --- | --- | --- | --- |
| CCCN1/C(=C/C=C(/C=C/C2=[N+](CCC)c3ccccc3C2(C)C)c2ccncc2)C(C)(C)c2ccccc21.[I-] [Substance 2] | 19.3 | 19.5 | 11.6 | 7.0 | 20.4 | 3.9 | 17.4 | 5.4 | 16.5 | 3.2 | 23.7 | 1.9 | caused a decrease in DHODH-dependent respiration | unaffected | caused a decrease in DHODH-dependent respiration |
| CCCN1/C(=C/C=C(/C=C/c2sc3ccccc3[n+]2CCC)c2ccccc2)Sc2ccccc21.[I-] [Substance 1] | 30.0 | 8.8 | 15.2 | 3.4 | 20.8 | 3.5 | 21.4 | 1.4 | 16.9 | 2.8 | 24.3 | 1.3 | caused a decrease in DHODH-dependent respiration | unaffected | caused a decrease in DHODH-dependent respiration |
